{"source": "patent US10638758B2", "about": "“Heterocycle-containing amino acid compound and use thereof” (AICHI STEEL CORPORATION, priority 2015, dated 2020)", "origin": "cited, not measured here", "system": "rice", "conditions": "alkaline conditions; Non-Patent Document 2", "data": [{"smiles": "O=C(O)[C@@H](NCC[C@H](O)C(=O)O)[C@@H](O)CN1CC[C@H]1C(=O)O", "note": "[mugineic acid]", "values": [{"measurement": "effect on the growth of graminaceous plants", "result": "dramatic effect"}]}]}
